Consider 16 compounds from ChEMBL document CHEMBL3600291, “Synthesis and carbonic anhydrase I, II, IX and XII inhibitory activity of sulfamates incorporating piperazinyl-ureido moieties” (Bioorg Med Chem, 2015).

A word on the Ki: it is a dissociation constant, usually derived from enzyme kinetics or from competition with a known ligand.

One test addresses Carbonic anhydrase 1 (Homo sapiens, UniProt P00915). The test can be described thus: Inhibition of human recombinant carbonic anhydrase-1 pre-incubated for 15 mins by stopped-flow CO2 hydration assay.
The next test concerns the target Carbonic anhydrase 9 (Homo sapiens, UniProt Q16790). The test can be described thus: Inhibition of human recombinant carbonic anhydrase-9 pre-incubated for 15 mins by stopped-flow CO2 hydration assay.
Another test addresses Carbonic anhydrase 12 (Homo sapiens, UniProt O43570). The test can be described thus: Inhibition of human recombinant carbonic anhydrase-12 pre-incubated for 15 mins by stopped-flow CO2 hydration assay.
Another test has as its target Carbonic anhydrase 2 (Homo sapiens, UniProt P00918). The test is described as follows: Inhibition of human recombinant carbonic anhydrase-2 pre-incubated for 15 mins by stopped-flow CO2 hydration assay.

Carbonic anhydrase 1, sequence (P00915 whole entry): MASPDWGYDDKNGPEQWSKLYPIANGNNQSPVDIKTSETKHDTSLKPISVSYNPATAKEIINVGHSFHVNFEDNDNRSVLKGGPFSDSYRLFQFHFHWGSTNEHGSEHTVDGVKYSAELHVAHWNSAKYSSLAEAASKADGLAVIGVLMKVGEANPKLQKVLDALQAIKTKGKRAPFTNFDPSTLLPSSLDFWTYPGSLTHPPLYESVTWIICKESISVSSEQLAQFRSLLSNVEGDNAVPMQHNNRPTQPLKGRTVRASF
Carbonic anhydrase 12, sequence (O43570 whole entry): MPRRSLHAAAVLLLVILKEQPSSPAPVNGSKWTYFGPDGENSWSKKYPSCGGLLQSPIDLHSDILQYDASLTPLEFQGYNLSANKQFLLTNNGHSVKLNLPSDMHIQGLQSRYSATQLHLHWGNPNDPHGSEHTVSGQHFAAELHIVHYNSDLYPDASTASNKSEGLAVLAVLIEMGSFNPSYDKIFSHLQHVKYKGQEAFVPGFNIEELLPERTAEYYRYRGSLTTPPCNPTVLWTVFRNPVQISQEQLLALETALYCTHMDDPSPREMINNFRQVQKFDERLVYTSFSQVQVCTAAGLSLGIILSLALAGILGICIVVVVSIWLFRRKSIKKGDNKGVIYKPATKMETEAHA

For `NS(=O)(=O)Oc1ccc(NC(=O)N2CCN(c3nccc(-c4cc5ccccc5o4)n3)CC2)cc1`, the inhibition constant Ki at Carbonic anhydrase 1 worked out at 70.2 nM; at Carbonic anhydrase 9 it was 6.7 nM; at Carbonic anhydrase 12, 1 nM; on Carbonic anhydrase 2, 1 nM.

Turning to `O=C(Nc1ccc(O)cc1)N1CCN(c2ccccc2)CC1`, on Carbonic anhydrase 9, the inhibition constant (Ki) is 121 nM.

As to `NS(=O)(=O)Oc1ccc(NC(=O)N2CCN(c3ccc(F)cc3)CC2)cc1`, the Ki on Carbonic anhydrase 1 is 9.4 nM; at Carbonic anhydrase 9, 61.5 nM; on Carbonic anhydrase 12, 64.7 nM; on Carbonic anhydrase 2 it was 18.2 nM.

Regarding `COc1ccc(N2CCN(C(=O)Nc3ccc(OS(N)(=O)=O)cc3)CC2)cc1`, the inhibition constant (Ki) on Carbonic anhydrase 1 came to 282 nM; on Carbonic anhydrase 9 it was 114 nM; on Carbonic anhydrase 12, 1.1 nM; at Carbonic anhydrase 2, 9.1 nM.

As to `NS(=O)(=O)Oc1ccc(NC(=O)N2CCN(c3nccc(-c4ccc(Br)cc4)n3)CC2)cc1`, the inhibition constant Ki at Carbonic anhydrase 9 turned out to be 114 nM.

With `NS(=O)(=O)Oc1ccc(NC(=O)N2CCN(c3ccccc3)CC2)cc1`, the Ki came to 897 nM on Carbonic anhydrase 1, 11.1 nM at Carbonic anhydrase 9, 1 nM on Carbonic anhydrase 12 and 71.9 nM at Carbonic anhydrase 2.

For the compound `O=C(Nc1ccc(O)cc1)N1CCN(c2ccc(F)cc2)CC1`, the Ki at Carbonic anhydrase 9 was determined as 36.9 nM.

As to `O=C(Nc1ccc(O)cc1)N1CCN(c2ccc(Cl)cc2)CC1`, the Ki is above 10000 nM at Carbonic anhydrase 1 and 80.5 nM at Carbonic anhydrase 9.

For `O=C(Nc1ccc(O)cc1)N1CCN(Cc2ccccc2)CC1`, the inhibition constant (Ki) at Carbonic anhydrase 1 was above 10000 nM; at Carbonic anhydrase 9 it was 113 nM.

Take `Cc1cccc(N2CCN(C(=O)Nc3ccc(O)cc3)CC2)c1`: the Ki at Carbonic anhydrase 9 is 549 nM.

For `Cc1cccc(N2CCN(C(=O)Nc3ccc(OS(N)(=O)=O)cc3)CC2)c1`, the Ki at Carbonic anhydrase 1 is 851 nM; on Carbonic anhydrase 9, 0.91 nM; on Carbonic anhydrase 12 it was 35.8 nM; at Carbonic anhydrase 2, 15.9 nM.

In the case of `Cc1cccc(N2CCN(C(=O)Nc3ccc(OS(N)(=O)=O)cc3)CC2)c1C`, the Ki on Carbonic anhydrase 1 came to 63.5 nM; on Carbonic anhydrase 9, 32.3 nM; on Carbonic anhydrase 12 it was 1 nM; at Carbonic anhydrase 2, 11.1 nM.

For `NS(=O)(=O)Oc1ccc(NC(=O)N2CCN(c3nccc(-c4ccc(C(F)(F)F)cc4)n3)CC2)cc1`, the Ki at Carbonic anhydrase 9 was 24.3 nM.

`NS(=O)(=O)Oc1ccc(NC(=O)N2CCN(c3ccc(Cl)cc3)CC2)cc1`: the inhibition constant Ki at Carbonic anhydrase 1 was determined as 581 nM; on Carbonic anhydrase 9, 10.4 nM; at Carbonic anhydrase 12, 84.5 nM; on Carbonic anhydrase 2 it was 16.9 nM.

As for `NS(=O)(=O)Oc1ccc(NC(=O)N2CCN(Cc3ccccc3)CC2)cc1`, the Ki was determined as 317 nM on Carbonic anhydrase 1, 10.5 nM on Carbonic anhydrase 9, 1 nM on Carbonic anhydrase 12 and 11.7 nM on Carbonic anhydrase 2.

Regarding `COc1cccc(N2CCN(C(=O)Nc3ccc(OS(N)(=O)=O)cc3)CC2)c1`, the inhibitory constant (Ki) at Carbonic anhydrase 1 was determined as 88.1 nM; on Carbonic anhydrase 9, 34.1 nM; at Carbonic anhydrase 12, 37 nM; on Carbonic anhydrase 2, 11.2 nM.
